# Data from patent publication US20150147417A1, “METHOD AND PHARMACEUTICAL COMPOSITION FOR LIVER FIBROSIS PREVENTION AND/OR TREATMENT” (National Dong Hua University, priority 2013, published 2015).
# Experiments:
# Format in all cases: cell-based, male Sprague-Dawley rat
# [1] = system: NHSC (non-induced hepatic stellate cells); experiment: Oil red O staining of lipid droplets; settings: curcumin 25 μM, 12 and 24 h, compared to BL extract treated cells
# Experimental: (§1) Non-induced hepatic stellate cells (NHSC, purity >95%) were isolated from male Sprague-Dawley rat liver, and Thioacetamide (TAA; Fluka Chemie GmbH, Buchs, Switzerland)-induced hepatic stellate cells (THSC, purity >95%) were isolated from TAA-induced fibrotic liver of male Sprague-Dawley rat (Chang et al., 2009). Both cells were maintained in complete DMEM containing 10% heat-inactivated FBS and 1% penicillin/streptomycin. NHSC and THSC cells (1×10^5 cells) were seeded in 6 well plates and incubated at 37° C. overnight. Then, cells were treated with various concentrations of BL extract (100, 250, and 500 μg/ml) or curcumin (25 μM) for 12 and 24 h. Cells were washed twice with PBS and fixed with pre-warmed 3.7% paraformaldehyde for 10 min. Cells were then stained with diluted Oil red O stock solution 0.5% (w/v) in isopropanol (Fluka; buffer/water=3/2) at room temperature for 1 h under the dark. Cells were washed with 50% isopropanol and counter-stained with Hematoxylin (Sigma-Aldrich) for 1 min. Results were photographed using Olympus CKX-41 (Olympus Corporation, Tokyo, Japan). Two kinds of hepatic stellate cells were used; that is, Non-chemical induced hepatic stellate cells (NHSC), and thioacetamide-induced hepatic stellate cells (THSC) for imitating a naturally-occurred activated HSC. […]
# [2] = system: THSC (thioacetamide-induced hepatic stellate cells); experiment: Oil red O staining of lipid droplets; settings: curcumin 25 μM, 12 and 24 h, compared to BL extract treated cells
# Experimental: as §1
# [3] = system: NHSC; experiment: Western blotting of protein expression levels; settings: curcumin 25 μM
# Experimental: (§2) Non-induced hepatic stellate cells (NHSC, purity >95%) were isolated from male Sprague-Dawley rat liver, and Thioacetamide (TAA; Fluka Chemie GmbH, Buchs, Switzerland)-induced hepatic stellate cells (THSC, purity >95%) were isolated from TAA-induced fibrotic liver of male Sprague-Dawley rat (Chang et al., 2009). Both cells were maintained in complete DMEM containing 10% heat-inactivated FBS and 1% penicillin/streptomycin. NHSC and THSC (5×10^5 cells) were seeded in 6 cm dish and grown till 80% confluence, and then incubated with various concentrations of BL extract (100, 250, and 500 μg/ml) or curcumin (25 μM) for 12 and 24 h. Cells were collected and lysed with RIPA buffer (150 mM NaCl, 0.1% Triton X-100, 0.5% sodium deoxycholate, 0.1% SDS, 50 mM Tris-HCl, pH 8.0). Protease inhibitor (Roche Applied Science, Mannheim, Germany) containing pancreas extract, thermolysin, chymotrypsin, trypsin, and papain was mixed with 50 ml RIPA buffer before use. Protein samples (30 μg/well) were loaded and separated with SDS-PAGE, and then transferred to PVDF membrane (PerkinElmer, Turku, Finland). The membrane was blocked with 5% non-fat milk in TBST (20 mM Tris-HCl, pH 7.4, 137 mM NaCl, and 0.05% Tween-20) at room temperature for 1 h. The membranes were incubated with primary antibodies (Table 1) at 4° C. overnight. The membranes were washed 3 times with TBST and then incubated with horseradish peroxidase (HRP)-conjugated secondary antibodies at room temperature for 1 h. Following incubation with HRP-conjugated secondary antibodies, membranes were treated with ECL reagents (PerkinElmer) for 1 min, and results were developed on LAS-3000 film (Fujifilm, Tokyo, Japan).
# [4] = system: THSC; experiment: Western blotting of protein expression levels; settings: curcumin 25 μM
# Experimental: as §2
# [5] = system: MMP2; experiment: MMP2 level (gelatin zymography) in NHSC; settings: curcumin 25 μM
# Experimental: (§3) Protein expression level was determined by western blotting and normalized with β-actin. Data are normalized to normal control (N) and expressed as mean±SEM in triplicate determinations. a, vs. N; b, vs. Cur. *, p<0.05; **, p<0.01; ***, p<0.001. Non-induced hepatic stellate cells (NHSC, purity >95%) were isolated from male Sprague-Dawley rat liver, and Thioacetamide (TAA; Fluka Chemie GmbH, Buchs, Switzerland)-induced hepatic stellate cells (THSC, purity >95%) were isolated from TAA-induced fibrotic liver of male Sprague-Dawley rat (Chang et al., 2009). Both cells were maintained in complete DMEM containing 10% heat-inactivated FBS and 1% penicillin/streptomycin. The activity of MMP2 was assayed by gelatine zymography, which can detect the active form and latent form of MMP2. NHSC and THSC (2×10^5 cells) were seeded in 6 well plates and incubated for 70 to 80% confluence. Cells were starved in DMEM containing 0.1% BSA for 6 h, and then treated with various concentrations of BL extract (100, 250, and 500 μg/ml) or curcumin (25 μM) for 12 and 24 h. Media were collected and centrifuged at 12,000×g for 30 min at 4° C. The supernatants were collected and protein concentration was quantified by Bradford dye (Bio-Rad). 8% SDS-PAGE gels were prepared containing 10% gelatin. […] Gels were scanned using Epson scanner and quantified using multi-gauge software (Fujifilm).
# [6] = system: MMP2; experiment: MMP2 level (gelatin zymography) in THSC; settings: curcumin 25 μM, except 24 h treatment
# Experimental: as §3
compound,measurement,setting,value
COc1cc(/C=C/C(=O)CC(=O)/C=C/c2ccc(O)c(OC)c2)ccc1O [curcumin],lipid droplets (Oil red O),[1],Fewer lipid droplets were increased
same,lipid droplets (Oil red O),[2],Fewer lipid droplets were increased
same,Col 1 expression level,[3],failed to reduce
same,TGF-β1 level,[3],cannot reduce
same,TGF-β R1 level,[3],significantly reduced
same,α-SMA expression level,[3],failed to reduce
same,expression level of TIMP2,"[3]; 24 h, vs normal control",significantly reduced
same,expression level of TIMP2,"[4]; 24 h, vs normal control",significantly reduced
same,Col 1 expression level,[4]; except 24 h treatment,failed to reduce
same,TGF-β1 level,[4]; except 24 h treatment,cannot reduce
same,α-SMA expression level,[4]; except 24 h treatment,failed to reduce
same,expression level of MMP2,[5],can reduce
same,expression level of MMP2,[6],can reduce
